The values below come from patent publication US11262348B2, “Cell-based assays for detection of antibodies or other factors that neutralize uptake of lysosomal enzymes” (BIOMARIN PHARMACEUTICAL INC., priority 2015, dated 2022).

Assay [1] deals with Jurkat cells. Description: Cell-based flow cytometry assay of Alexa488-rhGALNS uptake (screening assay, % SI). More on the design: species or system human. As for the experimental part: Cell uptake of rhGALNS is measured using flow cytometry to determine the amount of fluorophore-conjugated rhGALNS taken up by Jurkat cells. Jurkat cells are a non-adherent human T cell line that express CI-MPR, which binds and targets rhGALNS to the lysosome. rhGALNS neutralizing antibodies (NAb) are detected in samples by a decrease in fluorophore-conjugated rhGALNS uptake (calculated as % inhibition) that exceeds the screening cut point (SCP).
For a 1:1 dilution, 60 μL per well of controls were added in duplicate or in quadruplicate for 2 sets into the appropriate wells. Similarly, for a 1:1 dilution of sample, 60 μL per well of patient screening samples were added into the appropriate wells. For a 1:1 dilution for the confirmation assay, 60 μL per well of patient confirmation samples were added in duplicate into the corresponding wells. The plate was covered, wrapped in foil and allowed to incubate overnight for 14 to 20 hours at 2-8° C.
Assay: Prior to the sample incubation step, the cell plates were removed from the CO2 incubator and observed to ensure the cells were healthy and viable. […] After the incubation was completed, the cells were washed in PBS by centrifuging the plate for 6 min at 310×g in a tabletop centrifuge at 14 to 18° C., repeated two to five times as appropriate. After the last wash, the plate was removed from the centrifuge, the cell pellet resuspended in 100 μL viability stain (red fluorescent reactive dye 1:1000 dilution) and tested for viability. Once viability testing was complete, the cells were centrifuged 6 min at 310×g in a tabletop centrifuge at 14 to 18° C.
Percent Signal Inhibition (% SI) is calculated as [% SI=1—mean median fluorescence intensity (MFI) of sample/mean MFI of control×100]. Confirmatory assay data were analyzed as recovery ratio, defined as mean confirmatory assay MFI of sample/mean screening assay MFI of sample. The titer was calculated as the interpolated dilution factor at which the sample crossed the titer cut point determined by linear regression analysis (Microsoft Excel).
On the technique in general: In flow cytometry, cells or beads pass a laser one at a time.

Assay [2] has as its system Jurkat cells. Briefly: Flow cytometry uptake of labeled GAA with IGF-II tag. The format is cell-based, human. The note with it: for inhibition of rhGAA-IGF-II uptake (in words): Jurkat cells (Jurkat and HepG2 not distinguished); for inhibition of uptake: rhGAA-IGF-II uptake into Jurkat cells. As for the experimental part:
The assay was also validated for a CI-MPR ligand that is not mannose-6 phosphate. The ability of CI-MPR expressing Jurkat or HepG2 cells were analyzed by flow cytometry for their ability to take up labeled GAA comprising an IGF-II tag, which facilitates binding to the CI-MPR. […] This uptake was inhibited by unlabeled GAA as well as anti-IGFII antibody.

“Also recorded” adds a separate entry of the source.

For the compound `C=C1[C@@H](C)[C@H]2[C@H](Cc3ccccc3)NC(=O)[C@]23OC(=O)/C=C/[C@H](O)CCC[C@@H](C)C/C=C/[C@H]3[C@@H]1O` [cytochalasin B, reference compound], in assay [1] (374 μM cytochalasin B, pretreated 1 hour), the “MFI signal emitted from Alexa488-rhGALNS-treated cells” value is reported as 777±4.2.

Turning to “unlabeled GAA: unlabeled acid alpha glucosidase used as a competitor of GAA-IGFII uptake”, the “inhibition of rhGAA-IGF-II uptake (in words)” value in assay [2] was “inhibited”.

One may read the IC50 as the concentration that gives 50% inhibition. With `O=C[C@@H](O)[C@@H](O)[C@H](O)[C@H](O)COP(=O)(O)O` [M6P, mannose-6-phosphate, reference compound], in assay [1], the “inhibition of rhGALNS uptake into Jurkat cells (in words)” value was “dose dependent effect; also recorded: dose dependently abrogated; also recorded: completely blocked”. The “inhibition of rhGALNS uptake” value is “approximately 32%” in assay [1] (0.5M M6P) and “approximately 96%” in assay [1] (5M M6P). Besides, the IC50 in assay [1] (Homo sapiens, Jurkat cells) turned out to be 453 µM. Further, the “inhibition of rhGAA-IGF-II uptake (in words)” value in assay [2] was “partial inhibition”.

Take `Cc1cc(-c2ccc(/N=N/c3c(S(=O)(=O)O)cc4cc(S(=O)(=O)O)cc(N)c4c3O)c(C)c2)ccc1/N=N/c1c(S(=O)(=O)O)cc2cc(S(=O)(=O)O)cc(N)c2c1O` [trypan blue, reference compound]: the “fluorescence of cells treated with Alexa488-labeled anti-CD3” value in assay [1] (increasing concentrations of trypan blue) is on record as “reduced”. In addition, the “impact on Alexa488-rhGALNS MFI values” in assay [1] (trypan blue up to 0.4%) was “no impact”.

With “IGF-II: CI-MPR ligand tested as a possible neutralizing factor”, the “inhibition of rhGALNS uptake into Jurkat cells (in words)” value in assay [1] is recorded as “partial inhibition”. Also, the inhibition of uptake entry in assay [2] (0.6M excess IGF-II) is listed as “approximately 58%”; in assay [2] (50M excess IGF-II), “approximately 95%”. The “inhibition of rhGAA-IGF-II uptake (in words)” value in assay [2] is “dose dependent effect”.
